Measurements: US11008292B2, “FGFR4 inhibitor and preparation method and use thereof” (GUANGDONG ZHONGSHENG PHARMACEUTICAL CO., LTD, priority 2016, dated 2021)
Read-outs that look alike come from different tables or passages of the source.

Assays:
FGFR4 kinases = molecular target: T1, FGFR4 kinases (Homo sapiens, UniProt P22455); assay: In vitro enzyme activity test, Z′-LYTE Assay, FGFR4 enzymatic reaction; assay type: biochemical; conditions: for IC50: Z′-LYTE detection, 150 μM ATP
T1 construct: purchased Life technology
T1 sequence (P22455 22-802): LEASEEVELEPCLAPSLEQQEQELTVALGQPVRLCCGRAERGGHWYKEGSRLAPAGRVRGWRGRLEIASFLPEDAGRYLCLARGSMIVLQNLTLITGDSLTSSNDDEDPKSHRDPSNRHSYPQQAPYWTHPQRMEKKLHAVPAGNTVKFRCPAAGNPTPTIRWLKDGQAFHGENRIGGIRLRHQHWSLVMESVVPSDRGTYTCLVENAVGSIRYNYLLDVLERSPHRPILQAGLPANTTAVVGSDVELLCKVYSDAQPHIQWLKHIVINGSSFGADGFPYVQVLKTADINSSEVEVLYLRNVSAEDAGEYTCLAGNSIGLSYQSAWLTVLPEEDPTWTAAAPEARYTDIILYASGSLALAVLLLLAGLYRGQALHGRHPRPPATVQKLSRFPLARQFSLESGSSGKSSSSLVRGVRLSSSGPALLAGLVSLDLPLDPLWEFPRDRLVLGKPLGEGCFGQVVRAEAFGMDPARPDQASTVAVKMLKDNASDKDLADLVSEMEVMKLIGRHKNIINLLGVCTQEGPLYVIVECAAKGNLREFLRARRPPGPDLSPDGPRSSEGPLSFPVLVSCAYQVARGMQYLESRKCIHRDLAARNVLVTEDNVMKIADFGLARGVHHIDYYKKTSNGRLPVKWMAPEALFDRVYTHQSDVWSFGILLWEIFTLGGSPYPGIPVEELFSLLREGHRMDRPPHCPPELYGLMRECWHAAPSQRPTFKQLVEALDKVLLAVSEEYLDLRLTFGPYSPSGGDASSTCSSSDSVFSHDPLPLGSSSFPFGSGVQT
Method: (§1) The inhibitory effects of the compounds on FGFR4 kinases were assessed by detecting the enzymatic activities through Z′-LYTE® Assay, with the IC50 value of the compound as the indicator. This activity test was performed by Life technology.
(§2) The test compounds were diluted in a concentration gradient of 3-times, the final concentrations were 10 concentrations ranging from 10 μM to 0.5 nM, with double hole for each concentration; the content of DMSO in the detection reaction was 1%.
FGFR4 Enzymatic Reaction:
[…] The detection plate was Bar-coded Corning, low volume NBS, black 384-well plate, reaction conducted at room temperature for 60 minutes, and the reaction system was 10μμL.
(§3) To the kinase reaction solution was added 5 μL Development reagent B (1:64) to stop the reaction and incubated at 23° C. for 60 minutes, reading the plate with Envision instrument.
(§4) Data was transformed into the phosphorylation rate and the inhibitory rate by curve fitting with Model 205 in XLFIT (iDBS) to obtain the IC50 data of the compounds. It was set as 0% if the bottom of the curve was not in the range of −20% to 20%; otherwise it was set as 100% if the top of the curve was not in the range of 70% to 130%.

FGFR1 protein kinase = molecular target: T2, FGFR1 protein kinase (Homo sapiens, UniProt P11362); assay: In vitro enzyme activity test, Z′-LYTE Assay, FGFR1 enzymatic reaction; assay type: biochemical; conditions: Z′-LYTE detection; 25 μM ATP
T2 construct: purchased Life technology
T2 sequence (P11362 22-822): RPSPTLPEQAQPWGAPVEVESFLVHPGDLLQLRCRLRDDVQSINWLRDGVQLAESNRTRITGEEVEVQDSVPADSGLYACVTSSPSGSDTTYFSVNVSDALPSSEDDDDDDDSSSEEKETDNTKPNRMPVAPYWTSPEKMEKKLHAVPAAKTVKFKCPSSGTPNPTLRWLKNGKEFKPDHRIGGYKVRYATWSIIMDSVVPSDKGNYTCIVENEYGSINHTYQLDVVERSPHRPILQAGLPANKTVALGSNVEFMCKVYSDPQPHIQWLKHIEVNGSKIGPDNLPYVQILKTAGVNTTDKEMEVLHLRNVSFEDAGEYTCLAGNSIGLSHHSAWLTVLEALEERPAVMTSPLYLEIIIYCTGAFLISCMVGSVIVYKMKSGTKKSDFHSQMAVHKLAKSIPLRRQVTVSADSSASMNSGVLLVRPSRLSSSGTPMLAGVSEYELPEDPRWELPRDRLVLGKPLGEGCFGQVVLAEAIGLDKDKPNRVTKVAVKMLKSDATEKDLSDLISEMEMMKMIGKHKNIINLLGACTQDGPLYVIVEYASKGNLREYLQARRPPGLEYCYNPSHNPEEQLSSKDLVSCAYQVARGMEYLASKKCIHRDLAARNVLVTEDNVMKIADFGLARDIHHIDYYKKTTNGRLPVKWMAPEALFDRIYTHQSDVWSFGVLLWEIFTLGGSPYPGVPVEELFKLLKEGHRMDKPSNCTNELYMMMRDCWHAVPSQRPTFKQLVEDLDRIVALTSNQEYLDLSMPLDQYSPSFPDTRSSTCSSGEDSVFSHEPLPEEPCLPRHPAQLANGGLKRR
Method: as §1, §2
FGFR1 Enzymatic Reaction:
1 nM FGFR1 protein kinase, 2 μM Tyr4 peptide, 25 μM ATP, 50 mM HEPES (pH 7.5), 10 mM MgCl2, 1 mM EGTA, 0.01% BRIJ-35, 2 mM MnCl2, 1 mM DTT. The detection plate was Black Proxiplate 384-Plus plate (PerkinElmer), reaction conducted at room temperature for 60 minutes, and the reaction system was 10μμL.
as §3, §4

[1] = Pharmacokinetic evaluation in mice (IV and oral gavage); assay type: in vivo, female Balb/c nude mice; conditions: for F (bioavailability; oral absorption ratio): PO gavage 10 mg/kg vs IV 2 mg/kg; for clearance: read-out: Cl (plasma clearance); for half-life: read-out: T1/2 (elimination half-life) (converted); for Vd: read-out: Vdss (steady-state apparent volume of distribution); for Cmax: read-out: Cmax (peak concentration); for Tmax: read-out: Tmax (time to peak)
Method: […] The test compound suspended in the corresponding solvent at 1 mg/ml was administered by gavage to female Balb/c nude mice (fasted overnight, at an age of 7-9 weeks), with a dosage of 10 mg/kg. Two groups of animals were both blood sampled about 30 μL from jugular vein or tail vein at 0.0833, 0.25, 0.5, 1.0, 2.0, 4.0, 6.0, 8.0 and 24 h post-administration, which was placed into an anticoagulant tube charged with EDTA-K2, and plasma was separated by centrifugation. Plasma concentrations were determined by LC-MS/MS process using WinNonlin™ Version 6.3 (Pharsight, Mountain View, Calif.) pharmacokinetic software, calculating the related pharmacokinetic parameters with a linear logarithmic trapezoidal method for […] models.

[2] = test system: Hep3B Transplantation Models; assay: Tumor growth inhibition (TGI), antitumor activity test of mice in vivo; conditions: 30 mg/kg BID, Hep3B transplantation model
Method: The evolutionary growth potential of a tumor was assessed by the relationship between the volume of the tumor and time. The long axis (L) and short axis (W) of a subcutaneous tumor were determined by a caliper twice a week, the tumor volume (TV) was calculated by the formula of ((L×W^2)/2). TGI was calculated by the difference value between the median of tumor volumes of mice in the solvent group and the median of tumor volumes of mice in the drug group, and represented by the percentage accounting for the median of tumor volumes in the solvent control group,
Calculated by the following formula: % TGI=((the median of tumor volume (control group)−the median of tumor volume (dosing group))/the median of tumor volume (control group))×100%
The original statistical analysis was completed by the analysis of repeated variance determination. Subsequently, multiple comparisons were performed by a Scheffe psot hoc experimental method. Single solvent (0.5% methylcellulose+1% aqueous solution of Tween) was the negative control.

[3] = mouse, plasma, IV tail vein 2 mg/kg, female Balb/c nude mice
[4] = mouse, plasma, IV tail vein 0.2 mg/kg, female Balb/c nude mice
[5] = mouse, plasma, PO gavage 10 mg/kg, female Balb/c nude mice

IC50 (FGFR4 kinases) | IC50 (FGFR1 protein kinase) | Compound | other results
112 nM | > 10000 nM | C=CC(=O)Nc1cccc(C)c1Nc1ccc(/C(F)=C/c2c(Cl)c(OC)cc(OC)c2Cl)cn1 [Example 1] | FGFR4 inhibitory activity enhanced compared with the control example 1 (FGFR4 kinases; ratio to control example 1): 70 times
105 nM | 1900 nM | C=CC(=O)Nc1cccc(F)c1Nc1ccc(/C=C(\F)c2c(Cl)c(OC)cc(OC)c2Cl)cn1 [Example 18] | 
387 nM |  | C=CC(=O)Nc1cccc(Cl)c1Nc1ccc(/C=C(\F)c2c(Cl)c(OC)cc(OC)c2Cl)cn1 [Example 23] | 
575 nM |  | C=CC(=O)Nc1cc(F)c(F)cc1Nc1ccc(/C=C(\F)c2c(Cl)c(OC)cc(OC)c2Cl)cn1 [Example 22] | 
 |  | C=CC(=O)Nc1cccc(C)c1Nc1ncc(OCc2c(F)c(OC)cc(OC)c2F)cn1 [Control example 6] | F (bioavailability; oral absorption ratio) ([1]; female Balb/c nude mice): 0%; AUC(0-t) [1, 3]: 0.388 µM·h; clearance [1, 3]: 186 mL/min/kg; half-life [1, 3]: 14.1 min; Vd [1, 3]: 2.44 L/kg
408 nM |  | C=CC(=O)N[C@H]1COC[C@H]1Nc1ncc(/C=C/c2c(Cl)c(OC)cc(OC)c2Cl)cn1 [Control example 3, reference compound] | 
 |  | C=CC(=O)N[C@H]1COC[C@H]1Nc1ncc(OCc2c(F)c(OC)cc(OC)c2F)cn1 [Control example 7] | Cl (plasma clearance) ([1]; IV tail vein 0.2 mg/kg, female Balb/c nude mice): 65 mL/min/kg; AUC(0-t) [1, 4]: 0.113 µM·h; half-life [1, 4]: 6.54 min; Vd [1, 4]: 0.581 L/kg; bioavailability ([1]; mouse, plasma, PO gavage 1.0 mg/kg vs IV 0.2 mg/kg, female Balb/c nude mice, read-out: F (bioavailability)): 0%
31 nM | > 10000 nM | C=CC(=O)Nc1cccc(C)c1Nc1ccc(/C=C(\F)c2c(Cl)c(OC)cc(OC)c2Cl)cn1 [Example 7] | TGI % (dosing on Day 21 for the last time) [2]: 108%
23 nM | 174 nM | C=CC(=O)Nc1ccc(OC)c(C)c1Nc1ncc(/C=C(\F)c2c(Cl)c(OC)cc(OC)c2Cl)cn1 [Example 35] | 
13 nM |  | C=CC(=O)Nc1cc(N2CCN(C(C)=O)CC2)cc(C)c1Nc1ncc(/C=C(\F)c2c(Cl)c(OC)cc(OC)c2Cl)cn1 [Example 26] | 
199 nM |  | C=CC(=O)NC1CN(C(C)=O)CC1Nc1ncc(/C=C(\F)c2c(Cl)c(OC)cc(OC)c2Cl)cn1 (stereo not shown) [Example 34] | 
 |  | C=CC(=O)N[C@H]1COC[C@H]1Nc1ncc(OCc2c(Cl)c(OC)cc(OC)c2Cl)cn1 [Control example 8] | F (bioavailability; oral absorption ratio) ([1]; female Balb/c nude mice): 12.3%; AUC(0-t) [1, 3]: 1.8 µM·h; clearance [1, 3]: 39.7 mL/min/kg; half-life [1, 3]: 9.24 min; Vd [1, 3]: 0.407 L/kg; AUC(0-t) [1, 5]: 1.1 µM·h; Cmax [1, 5]: 2710 nM; Tmax [1, 5]: 15 min
476 nM | 355 nM | C=CC(=O)N[C@@H]1CCC[C@@H]1Nc1ncc(/C=C(\F)c2c(Cl)c(OC)cc(OC)c2Cl)cn1 [Example 25] | 
 |  | C=CC(=O)Nc1cccc(C)c1Nc1ncc(OCc2c(Cl)c(OC)cc(OC)c2Cl)cn1 [Control example 5] | F (bioavailability; oral absorption ratio) ([1]; female Balb/c nude mice): 0%; AUC(0-t) [1, 3]: 0.528 µM·h; clearance [1, 3]: 127 mL/min/kg; half-life [1, 3]: 13.3 min; Vd [1, 3]: 1.28 L/kg
544 nM |  | C=CC(=O)Nc1cccc(C)c1Nc1ccc(/C(F)=C(\C)c2c(Cl)c(OC)cc(OC)c2Cl)cn1 [Example 10] | 
10.9 nM | 25.8 nM | C=CC(=O)Nc1cc(N2CCN(CC)CC2)c(OC)cc1Nc1ncc(/C=C(\F)c2c(Cl)c(OC)cc(OC)c2Cl)cn1 [Example 12] | 
 |  | C=CC(=O)N[C@H]1CCOC[C@H]1Nc1ncc(OCc2c(F)c(OC)cc(OC)c2F)cn1 [Control example 4] | F (bioavailability; oral absorption ratio) ([1]; female Balb/c nude mice): 0%; AUC(0-t) [1, 3]: 0.958 µM·h; clearance [1, 3]: 77.1 mL/min/kg; half-life [1, 3]: 6.84 min; Vd [1, 3]: 0.533 L/kg

IC50 (FGFR4 kinases) | IC50 (FGFR1 protein kinase) | Compound | other results
17.7 nM | 182 nM | C=CC(=O)Nc1ccc(OCCN2CCN(C)CC2)c(C)c1Nc1ncc(/C=C(\F)c2c(Cl)c(OC)cc(OC)c2Cl)cn1 [Example 14] | 
263 nM | 3210 nM | C=CC(=O)Nc1cc(Cl)cc(F)c1Nc1ccc(/C=C(\F)c2c(Cl)c(OC)cc(OC)c2Cl)cn1 [Example 28] | 
20.1 nM | 4980 nM | C=CC(=O)Nc1cc(N2CCN(CC)CC2)cc(C)c1Nc1ncc(/C(F)=C/c2c(Cl)c(OC)cc(OC)c2Cl)cn1 [Example 11] | 
124 nM | > 10000 nM | C=CC(=O)Nc1cccc(F)c1Nc1ccc(/C(F)=C/c2c(Cl)c(OC)cc(OC)c2Cl)cn1 [Example 6] | 
560 nM | > 10000 nM | C=CC(=O)Nc1ccc(Cl)c(C)c1Nc1ccc(/C=C(\F)c2c(Cl)c(OC)cc(OC)c2Cl)cn1 [Example 31] | 
268 nM |  | C=CC(=O)Nc1cc(F)cc(C)c1Nc1ccc(/C=C(\F)c2c(Cl)c(OC)cc(OC)c2Cl)cn1 [Example 29] | 
14 nM | 2970 nM | C=CC(=O)Nc1cc(N2CCN(CC)CC2)cc(C)c1Nc1ncc(/C=C/c2c(Cl)c(OC)cc(OC)c2Cl)cn1 [Control example 2, reference compound] | 
47 nM | 3100 nM | C=CC(=O)N[C@H]1COC[C@H]1Nc1ncc(/C=C(\F)c2c(Cl)c(OC)cc(OC)c2Cl)cn1 [Example 19] | FGFR4 inhibitory activity enhancement vs control example (FGFR4 kinases; ratio to control example 3): ~9 times
1.58 nM | 813 nM | C=CC(=O)Nc1cc(N2CCN(CC)CC2)cc(C)c1Nc1ncc(/C=C(\F)c2c(Cl)c(OC)cc(OC)c2Cl)cn1 [Example 15] | FGFR4 inhibitory activity enhancement vs control example (FGFR4 kinases; ratio to control example 2): ~9 times
30.1 nM | 613 nM | C=CC(=O)Nc1ccc(N2CCN(CC)CC2)c(C)c1Nc1ncc(/C=C(\F)c2c(Cl)c(OC)cc(OC)c2Cl)cn1 [Example 13] | 
361 nM |  | C=CC(=O)N[C@@H]1COC[C@@H]1Nc1ncc(/C(F)=C/c2c(Cl)c(OC)cc(OC)c2Cl)cn1 [Example 32] | 
10 nM | 2100 nM | C=CC(=O)Nc1cccc(C)c1Nc1ncc(/C=C(\F)c2c(Cl)c(OC)cc(OC)c2Cl)cn1 [Example 24] | stability enhanced (plasma clearance) compared with the control example 5 ([1]; IV, mice, ratio to control example 5): 2 times; stability enhanced (plasma clearance) compared with the control example 6 ([1]; IV, mice, ratio to control example 6): more than 3 times; F (bioavailability; oral absorption ratio) ([1]; female Balb/c nude mice): 14.8%; AUC(0-t) [1, 3]: 1.32 µM·h; clearance [1, 3]: 50 mL/min/kg; half-life [1, 3]: 32.9 min; Vd [1, 3]: 1.82 L/kg; AUC(0-t) [1, 5]: 0.962 µM·h; Cmax [1, 5]: 282 nM; Tmax [1, 5]: 30 min
8060 nM | > 10000 nM | C=CC(=O)Nc1cccc(C)c1Nc1ccc(/C(F)=C/c2cc(OC)cc(OC)c2)cn1 [Control example 1, reference compound] | 
203 nM |  | C=CC(=O)Nc1cccc(C)c1Nc1cnc(/C(F)=C/c2c(Cl)c(OC)cc(OC)c2Cl)cn1 [Example 5] | 
84 nM | > 10000 nM | C=CC(=O)Nc1cccc(C)c1Nc1ncc(/C(F)=C/c2c(Cl)c(OC)cc(OC)c2Cl)cn1 [Example 2] | 
238 nM |  | C=CC(=O)Nc1cc(F)cc(C)c1Nc1ncc(/C=C(\F)c2c(Cl)c(OC)cc(OC)c2Cl)cn1 [Example 30] | 
